{
  "source": "patent US10399948B2",
  "about": "“Negative allosteric modulators of metabotropic glutamate receptor 3” (Vanderbilt University, priority 2015, dated 2019)",
  "key": {"[1]": {"tested_on": "Helpless (H) mice", "settings": "cited from earlier work; for activity in the tail suspension test: Helpless (H) mice"}, "[2]": {"tested_on": "social isolation-reared mice", "settings": "cited from earlier work"}, "[3]": {"tested_on": "olfactory bulbectomized rats", "settings": "repeated administration for 14 days; cited from earlier work"}, "[4]": {"settings": "in vivo; cited from earlier work"}, "[5]": {"settings": "cited from earlier work"}, "[6]": {"tested_on": "rat", "settings": "normal animals; cited from earlier work"}, "[7]": {"tested_on": "mouse", "settings": "normal animals; cited from earlier work"}, "[8]": {"tested_on": "mice", "settings": "cited from earlier work"}, "[9]": {"tested_on": "schizophrenic patients", "settings": "compared to placebo, P<0.001 at week 4; cited from earlier work"}, "[10]": {"tested_on": "C57Bl6/J mice", "settings": "FST; cited from earlier work"}, "[11]": {"tested_on": "glioma stem cells (GSC) tumors", "settings": "compared with controls; cited from earlier work"}, "[12]": {"tested_on": "Aβ-induced neurodegeneration", "settings": "cited from earlier work"}, "[13]": {"tested_on": "glioma stem cells (GSC)", "settings": "in vitro; cited from earlier work"}, "[14]": {"tested_on": "central mGlu2 and mGlu3 receptors", "settings": "in vivo; cited from earlier work"}, "[15]": {"tested_on": "group II mGlu receptors (mGlu2 and mGlu3)", "settings": "cited from earlier work"}, "[16]": {"target": "rat mGlu2 (Rattus norvegicus (Rat), UniProt P31421)", "sequence (P31421 19-872)": "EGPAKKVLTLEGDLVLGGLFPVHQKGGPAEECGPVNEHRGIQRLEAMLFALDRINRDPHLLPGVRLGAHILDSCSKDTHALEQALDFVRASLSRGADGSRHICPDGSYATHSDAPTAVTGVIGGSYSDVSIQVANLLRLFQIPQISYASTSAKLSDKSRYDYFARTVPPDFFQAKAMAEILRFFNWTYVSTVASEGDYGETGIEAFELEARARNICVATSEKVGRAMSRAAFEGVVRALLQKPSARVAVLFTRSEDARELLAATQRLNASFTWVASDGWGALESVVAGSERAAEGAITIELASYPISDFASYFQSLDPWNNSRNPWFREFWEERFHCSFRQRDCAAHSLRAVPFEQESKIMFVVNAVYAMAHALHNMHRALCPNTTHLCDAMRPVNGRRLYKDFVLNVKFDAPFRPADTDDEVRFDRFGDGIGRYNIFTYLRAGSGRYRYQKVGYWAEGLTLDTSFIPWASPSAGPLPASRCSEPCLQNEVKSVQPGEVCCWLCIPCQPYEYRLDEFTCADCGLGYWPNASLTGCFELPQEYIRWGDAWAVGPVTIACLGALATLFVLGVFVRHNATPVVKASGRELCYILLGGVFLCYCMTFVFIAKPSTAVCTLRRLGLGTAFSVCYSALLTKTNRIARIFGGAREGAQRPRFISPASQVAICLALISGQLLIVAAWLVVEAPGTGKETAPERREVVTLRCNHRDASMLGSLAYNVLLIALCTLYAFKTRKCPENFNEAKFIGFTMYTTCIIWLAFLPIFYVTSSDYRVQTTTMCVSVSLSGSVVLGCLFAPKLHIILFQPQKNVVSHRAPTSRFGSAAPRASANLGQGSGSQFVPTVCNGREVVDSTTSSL", "test": "mGlu2 Ca2+ flux assay", "assay_type": "cell-based", "settings": "NAM, glutamate EC80; >30,000 = no measurable activity"}, "[17]": {"target": "rat mGlu3 (Rattus norvegicus (Rat), UniProt P31422)", "sequence (P31422 23-879)": "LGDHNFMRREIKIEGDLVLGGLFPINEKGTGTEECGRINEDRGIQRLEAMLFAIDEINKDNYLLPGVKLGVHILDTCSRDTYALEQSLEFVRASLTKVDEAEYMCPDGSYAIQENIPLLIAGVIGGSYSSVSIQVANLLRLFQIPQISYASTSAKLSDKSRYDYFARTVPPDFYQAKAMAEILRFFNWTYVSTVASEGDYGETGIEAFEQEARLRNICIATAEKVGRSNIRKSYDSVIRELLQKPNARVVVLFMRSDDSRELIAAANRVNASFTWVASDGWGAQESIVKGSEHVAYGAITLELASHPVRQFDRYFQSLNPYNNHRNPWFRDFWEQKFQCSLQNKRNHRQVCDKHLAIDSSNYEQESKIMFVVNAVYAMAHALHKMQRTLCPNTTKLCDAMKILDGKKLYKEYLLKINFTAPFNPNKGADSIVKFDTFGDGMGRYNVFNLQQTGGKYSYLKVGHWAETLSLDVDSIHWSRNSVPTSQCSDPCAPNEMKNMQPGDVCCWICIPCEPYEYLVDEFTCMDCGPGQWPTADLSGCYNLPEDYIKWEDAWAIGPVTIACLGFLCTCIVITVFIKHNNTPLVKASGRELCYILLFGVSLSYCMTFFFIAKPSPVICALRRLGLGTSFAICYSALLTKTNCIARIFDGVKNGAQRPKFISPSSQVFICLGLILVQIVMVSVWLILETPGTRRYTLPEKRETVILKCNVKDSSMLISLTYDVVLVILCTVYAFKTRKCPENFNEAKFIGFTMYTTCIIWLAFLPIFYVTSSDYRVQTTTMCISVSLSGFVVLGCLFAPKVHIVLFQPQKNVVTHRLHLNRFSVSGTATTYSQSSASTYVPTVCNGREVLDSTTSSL", "test": "mGlu3 Ca2+ flux assay", "assay_type": "cell-based", "settings": "for IC50: NAM, glutamate EC80, >10,000 = decrease without plateau, >30,000 = no measurable activity; for remaining activity at 30 µM: response at 30 μM test compound as percentage of maximal response to glutamate, read-out: rat mGlu3 Glu max (%)"}, "[18]": {"target": "rat mGlu5 (Rattus norvegicus (Rat), UniProt P31424)", "sequence (P31424 21-1203)": "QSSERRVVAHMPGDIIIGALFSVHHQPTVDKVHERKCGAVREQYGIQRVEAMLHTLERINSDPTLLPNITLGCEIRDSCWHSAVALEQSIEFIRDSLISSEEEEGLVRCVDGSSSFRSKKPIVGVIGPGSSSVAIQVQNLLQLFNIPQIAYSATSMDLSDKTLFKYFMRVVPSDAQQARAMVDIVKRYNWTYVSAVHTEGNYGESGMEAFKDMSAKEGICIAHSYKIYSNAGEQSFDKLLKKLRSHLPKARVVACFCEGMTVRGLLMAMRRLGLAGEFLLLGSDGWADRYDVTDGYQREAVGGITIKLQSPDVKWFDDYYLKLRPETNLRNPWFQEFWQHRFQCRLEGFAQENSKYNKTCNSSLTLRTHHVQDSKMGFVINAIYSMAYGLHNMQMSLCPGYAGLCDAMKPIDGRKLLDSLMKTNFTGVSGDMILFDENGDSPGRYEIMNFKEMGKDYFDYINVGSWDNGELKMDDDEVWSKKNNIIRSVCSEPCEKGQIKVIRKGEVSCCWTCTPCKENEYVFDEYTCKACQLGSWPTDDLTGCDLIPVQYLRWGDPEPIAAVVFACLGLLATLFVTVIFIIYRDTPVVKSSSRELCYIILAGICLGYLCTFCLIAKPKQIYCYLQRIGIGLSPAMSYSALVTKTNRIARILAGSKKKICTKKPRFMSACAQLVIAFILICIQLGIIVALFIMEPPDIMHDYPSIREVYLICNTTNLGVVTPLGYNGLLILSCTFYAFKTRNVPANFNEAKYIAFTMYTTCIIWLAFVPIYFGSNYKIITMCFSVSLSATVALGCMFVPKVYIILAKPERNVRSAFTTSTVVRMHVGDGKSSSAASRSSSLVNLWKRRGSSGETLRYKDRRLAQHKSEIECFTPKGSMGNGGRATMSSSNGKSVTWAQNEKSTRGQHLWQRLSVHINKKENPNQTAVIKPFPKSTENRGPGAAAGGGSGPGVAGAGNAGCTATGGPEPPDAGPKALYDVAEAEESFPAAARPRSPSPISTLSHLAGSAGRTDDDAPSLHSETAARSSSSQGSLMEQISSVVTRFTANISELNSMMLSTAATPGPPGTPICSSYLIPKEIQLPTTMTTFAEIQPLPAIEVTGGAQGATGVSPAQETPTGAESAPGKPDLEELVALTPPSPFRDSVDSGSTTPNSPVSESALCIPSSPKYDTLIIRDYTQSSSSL", "test": "mGlu5 Ca2+ flux assay", "assay_type": "cell-based", "settings": "for activity at 30 µM: read-out: rat mGlu5 Glu max (%)", "method": "HEK 293A cells stably expressing rat mGlu5 were plated in black-walled, clear-bottomed, poly-D-lysine coated 384-well plates in 20 μL of assay medium (DMEM containing 10% dialyzed FBS, 20 mM HEPES, 100 units/mL penicillin/streptomycin plus 250 ng/mL Fungizone, and 1 mM sodium pyruvate) at a density of 20K cells/well. The cells were grown overnight at 37° C. in the presence of 5% CO2. The next day, medium was removed and the cells incubated with 20 μL of […] Fluo-4, AM prepared as a 2.3 mM stock in DMSO and mixed in a 1:1 ratio with 10% (w/v) pluronic acid F-127 and diluted in assay buffer (Hank's balanced salt solution, 20 mM HEPES, and 2.5 mM probenecid) for 45 minutes at 37° C. Dye was removed, 20 μL of assay buffer was added, and the plate was incubated for 5 minutes at room temperature.\nCa^2+ flux was measured using the Functional Drug Screening System (FDSS7000, Hamamatsu, Japan). After establishment of a fluorescence baseline for about 3 seconds, the compounds of the present invention were added to the cells, and the response in cells was measured. 2.3 minutes later an EC20 concentration of the mGlu5 receptor agonist glutamate was added to the cells, and the response of the cells was measured for 1.9 minutes; an EC80 concentration of agonist was added and readings taken for an additional 1.7 minutes. All test compounds were dissolved and diluted to a concentration of 10 mM in 100% DMSO. Compounds were then serially diluted 1:3 in DMSO into 10 point concentration response curves, transferred to daughter plates, and further diluted into assay buffer to a 2× stock. Calcium fluorescence measures were recorded as fold over basal fluorescence; raw data was then normalized to the maximal response to glutamate.\nThe raw data file containing all time points was used as the data source in the analysis template. This was saved by the FDSS as a tab-delimited text file. Data were normalized using a static ratio function (F/F0) for each measurement of the total 360 values per well divided by each well's initial value. Data were then reduced to peak amplitudes (Max−Initial Min) using a time range that starts approximately 3 seconds prior to the glutamate EC20/EC80 addition and continues for approximately 90-120 seconds. This is sufficient time to capture the peak amplitude of the cellular calcium response. Individual amplitudes were expressed as % EMax by multiplying each amplitude by 100 and then dividing the product by the mean of the amplitudes derived from the glutamate ECMax-treated wells. EC50 values for test compounds were generated by fitting the normalized values versus the log of the test compound concentration (in mol/L) using a 4 parameter logistic equation where none of the parameters were fixed. Each of the three values collected at each concentration of test compound were weighted evenly."}, "[19]": {"settings": "PAM, response at 30 μM test compound as percentage of maximal response to glutamate"}},
  "note": "Like-named read-outs stand apart in the source and are kept apart here.",
  "data": [
    {"smiles": "CNCCC(Oc1ccc(C(F)(F)F)cc1)c1ccccc1", "note": "(centres unmarked) [fluoxetine]", "values": [
      {"measurement": "antidepressant effect in helpless mice", "setting": "[1]; chronic (21 days) treatment", "value": "full antidepressant effect"}
    ]},
    {"smiles": "N[C@]1(C(=O)O)[C@H]2[C@@H](C[C@H]1OCc1ccc(Cl)c(Cl)c1)[C@]2(F)C(=O)O", "note": "[MGS0039]", "values": [
      {"measurement": "increased immobility in the FST", "setting": "[2]", "value": "reversed"},
      {"measurement": "hyperactivity in the open field test", "setting": "[3]", "value": "attenuated"},
      {"measurement": "learning deficit in the passive avoidance test", "setting": "[3]", "value": "attenuated"},
      {"measurement": "freezing behavior", "setting": "[4]", "value": "significantly decreased"},
      {"measurement": "antidepressant effects", "setting": "[5]; learned helplessness test/paradigm", "value": "antidepressant effects"},
      {"measurement": "number of escape failures", "setting": "[5]; treatment for 7 days", "value": "significantly reduced"},
      {"measurement": "antidepressant-like effects", "setting": "[6]", "value": "Antidepressant-like effects"},
      {"measurement": "antidepressant-like effects", "setting": "[7]", "value": "Antidepressant-like effects"},
      {"measurement": "marble-burying behavior", "setting": "[8]", "value": "reduced marble-burying behavior in a significant and dose dependent manner"},
      {"measurement": "spontaneous locomotor activity", "setting": "[8]", "value": "no significant change"}
    ]},
    {"smiles": "N[C@@]1(C(=O)O)CS(=O)(=O)[C@H]2[C@H](C(=O)O)[C@H]21", "note": "[LY404039]", "values": [
      {"measurement": "positive and negative symptoms of schizophrenia", "setting": "[9]", "value": "statistically significant improvements"}
    ]},
    {"smiles": "N[C@](CC1c2ccccc2Oc2ccccc21)(C(=O)O)[C@H]1C[C@@H]1C(=O)O", "note": "[LY341495]", "values": [
      {"measurement": "immobility time", "setting": "[10]", "value": "dose-dependently reduced"},
      {"measurement": "growth rate and volume of tumors", "setting": "[11]", "value": "reduced"},
      {"measurement": "amplification of Aβ-induced neurodegeneration by LY566332", "setting": "[12]", "value": "prevented"},
      {"measurement": "antidepressant-like effects", "setting": "[6]", "value": "Antidepressant-like effects"},
      {"measurement": "proliferation rates and proportion of cells in S phase", "setting": "[13]", "value": "decreased in a time-dependent manner"},
      {"measurement": "antidepressant-like effects", "setting": "[7]", "value": "Antidepressant-like effects"},
      {"measurement": "marble-burying behavior", "setting": "[8]", "value": "significantly reduce"},
      {"measurement": "hypolocomotor effect of mGlu2/3 agonist LY379268", "setting": "[14]", "value": "achieved the same result"},
      {"measurement": "activity in the tail suspension test", "setting": "[1]", "value": "active"},
      {"measurement": "antidepressant effect in helpless mice", "setting": "[1]; acute administration", "value": "potent antidepressant effect"}
    ]},
    {"smiles": "CCCCCCCOC(=O)[C@@]1(F)[C@@H]2C[C@@H](OCc3ccc(Cl)c(Cl)c3)[C@@](N)(C(=O)O)[C@@H]21", "note": "[BCI-838]", "values": [
      {"measurement": "duration of inhibition of group II mGlu receptors", "setting": "[15]; once-daily oral dosing, brain concentration of active metabolite BCI-632", "value": 22, "unit": "h"},
      {"measurement": "Dutch APP transgene-associated learning and memory impairment", "setting": "[15]; three months of treatment", "value": "reversed"},
      {"measurement": "anxiolytic effects", "setting": "[15]; three months of treatment", "value": "anxiolytic effects"},
      {"measurement": "levels of monomeric and oAβ peptides in the hippocampus and cortex", "setting": "[15]; three months of treatment", "value": "decreased"},
      {"measurement": "hippocampal progenitor cell proliferation", "setting": "[15]; wild-type and Alzheimer's diseased mice, 3 months", "value": "stimulated"}
    ]},
    {"smiles": "CCS(=O)(=O)N(Cc1cccnc1)c1cccc(-c2ccc(C#N)cc2)c1", "note": "[LY566332]", "values": [
      {"measurement": "Aβ-induced neurodegeneration", "setting": "[12]", "value": "amplified"}
    ]},
    {"smiles": "Cc1cc(-c2cccc(C3=Nc4cc(C)c(C(F)(F)F)cc4NC(=O)C3)c2)cc(C)n1", "note": "[RO4491533]", "values": [
      {"measurement": "immobility time", "setting": "[10]", "value": "dose-dependently reduced"},
      {"measurement": "hypolocomotor effect of mGlu2/3 agonist LY379268", "setting": "[14]", "value": "reversed"},
      {"measurement": "activity in the tail suspension test", "setting": "[1]", "value": "active"}
    ]},
    {"smiles": "N#Cc1cccc(OCCOc2ccn(-c3ccc(F)cc3)c(=O)c2)c1", "note": "[Compound 41, 3-(2-((1-(4-fluorophenyl)-2-oxo-1,2-dihydropyridin-4-yl)oxy)ethoxy)benzonitrile]", "values": [
      {"measurement": "IC50", "setting": "[16]", "value": "> 30000", "unit": "nM"},
      {"measurement": "IC50", "setting": "[17]", "value": 715, "unit": "nM"},
      {"measurement": "remaining activity at 30 µM", "setting": "[17]", "value": 0.13, "unit": "%"},
      {"measurement": "IC50", "setting": "[18]; noted as weak NAM, glutamate EC80, read-out: rat mGlu5 EC50 or IC50", "value": "> 10000", "unit": "nM"},
      {"measurement": "activity at 30 µM", "setting": "[18]; noted as weak NAM, response at 30 μM test compound", "value": 29.1, "unit": "%"}
    ]},
    {"smiles": "O=c1cc(OCCOc2cccc(F)c2F)ccn1-c1ccc(F)cc1", "note": "[Compound 33, 4-(2-(2,3-difluorophenoxy)ethoxy)-1-(4-fluorophenyl)pyridin-2(1H)-one]", "values": [
      {"measurement": "IC50", "setting": "[16]", "value": "> 30000", "unit": "nM"},
      {"measurement": "IC50", "setting": "[17]", "value": 917, "unit": "nM"},
      {"measurement": "remaining activity at 30 µM", "setting": "[17]", "value": -0.23, "unit": "%"},
      {"measurement": "EC50", "setting": "[18]; PAM, glutamate EC20, >10,000 = no plateau, >30,000 = no measurable activity, read-out: rat mGlu5 EC50 or IC50", "value": 6850, "unit": "nM"},
      {"measurement": "activity at 30 µM", "setting": "[18]; [19]", "value": 94.1, "unit": "%"}
    ]},
    {"smiles": "O=c1cc(OCCOc2ccccc2)ccn1-c1ccc(F)cc1", "note": "[Compound 18, 1-(4-Fluorophenyl)-4-(2-phenoxyethoxy)pyridin-2(1H)-one]", "values": [
      {"measurement": "IC50", "setting": "[16]", "value": "> 30000", "unit": "nM"},
      {"measurement": "IC50", "setting": "[17]", "value": "725 ± 227", "unit": "nM"},
      {"measurement": "remaining activity at 30 µM", "setting": "[17]", "value": "1.45 ± 0.14", "unit": "%"},
      {"measurement": "EC50", "setting": "[18]", "value": 567, "unit": "nM"},
      {"measurement": "activity at 30 µM", "setting": "[18]; [19]", "value": 97.3, "unit": "%"}
    ]},
    {"smiles": "CN1C(=O)CN=C(c2ccccc2)c2cc(Cl)ccc21", "note": "[diazepam]", "values": [
      {"measurement": "freezing behavior", "setting": "[4]", "value": "significantly decreased"}
    ]}
  ]
}
